Literature values, collected in patent US9198974B2, “Decorated macromolecular scaffolds” (Mintaka Foundation for Medical Research, priority 2011, dated 2015).

Conditions: for pKa, m-: meta-substituted aniline; for pKa, m- / pKa, o-: listed as gives the substituent; for pKa, o-: ortho-substituted aniline

Nc1cccc(Br)c1 [m-Br—]
pKa, m-: 3.51

CCOC(=O)c1cccc(N)c1 [m-C2H5O2C—]
pKa, m-: 2.38

CCOc1cccc(N)c1 [m-C2H5O—]
pKa, m-: 4.17

Nc1cccc(-c2ccccc2)c1 [m-C6H5—]
pKa, m-: 4.18

COC(=O)c1cccc(N)c1 [m-CH3O2C—]
pKa, m-: 3.56

COc1cccc(N)c1 [m-CH3O—]
pKa, m-: 4.20

CSc1cccc(N)c1 [m-CH3S—]
pKa, m-: 4.40

Cc1cccc(N)c1 [m-CH3—]
pKa, m-: 4.67

Nc1cccc(Cl)c1 [m-Cl—]
pKa, m-: 3.32

Nc1cccc(C(F)(F)F)c1 [m-F3C—]
pKa, m-: 2.57

Nc1cccc(F)c1 [m-F—]
pKa, m-: 3.38

Nc1cccc(N)c1 [m-H2N—]
pKa, m-: 4.88

Nc1cccc(C(=O)O)c1 [m-HO2C—]
pKa, m-: 3.05

Nc1cccc(O)c1 [m-HO—]
pKa, m-: 4.17

Nc1cccc([N+](=O)[O-])c1 [m-O2N—]
pKa, m-: 2.45

Nc1cccc(S(=O)(=O)O)c1 [m-O3S—]
pKa, m-: 3.32

CC(C)(C)c1ccccc1N [o-(CH3)3C—]
pKa, o-: 3.78

Nc1ccccc1Br [o-Br—]
pKa, o-: 2.6

CCOC(=O)c1ccccc1N [o-C2H5O2C—]
pKa, o-: 2.10

CCOc1ccccc1N [o-C2H5O—]
pKa, o-: 4.47

Nc1ccccc1-c1ccccc1 [o-C6H5—]
pKa, o-: 3.78

COC(=O)c1ccccc1N [o-CH3O2C—]
pKa, o-: 2.16

COc1ccccc1N [o-CH3O—]
pKa, o-: 4.49

CSc1ccccc1N [o-CH3S—]
pKa, o-: 4.05

Cc1ccccc1N [o-CH3—]
pKa, o-: 4.38

Nc1ccccc1Cl [o-Cl—]
pKa, o-: 2.62

Nc1ccccc1C(F)(F)F [o-F3C—]
pKa, o-: 3.49

Nc1ccccc1F [o-F—]
pKa, o-: 2.96

Nc1ccccc1N [o-H2N—]
pKa, o-: 4.47

Nc1ccccc1C(=O)O [o-HO2C—]
pKa, o-: 2.04

Nc1ccccc1O [o-HO—]
pKa, o-: 4.72

Nc1ccccc1[N+](=O)[O-] [o-O2N—]
pKa, o-: −0.28

Nc1ccccc1S(=O)(=O)O [o-O3S—]
pKa, o-: 3.80

CCOc1ccc(N)cc1 [p-C2H5O—, 4-ethoxy aniline]
pKa (preferred aniline catalysts): 5.2
